From patent US11272841B2, “Indicator fluids, systems, and methods for assessing movement of substances within, to or from a cerebrospinal fluid, brain or spinal cord compartment of a cranio-spinal cavity of a human” (BRAINWIDESOLUTIONS AS, priority 2017, dated 2022)

What was measured:
[1] = Gadobutrol concentration in blood at time points after gadobutrol was present in CSF (FIG. 1e-h); format: in vivo, human
From the text: In test studies, the inventors measured concentrations of the indicator fluid gadobutrol in blood at different time points after indicator fluid was present in CSF. […] In FIG. 1e-h are provided examples of measurements of gadobutrol (indicator fluid) concentrations in blood. On the y-axis is shown the indicator fluid concentration level 119 in blood (i.e. concentration of gadobutrol measured in units mg/kg), and on x-axis the time 120 elapsed from gadobutrol was present within the CSF. The concentration level of gadobutrol was measured after different time points 120, including after 1-2 hours, 3-4 hours, 5-6 hours, 7-8 hours, 23-26 hours, and 46-49 hours, for different individuals.
With reference to FIG. 1e, trend plots of average values of gadobutrol concentrations in blood (mg/kg) are shown for individuals with intracranial hypotension 121 (symbol ♦; n=4), idiopathic intracranial hypertension 122 (symbol ●; n=1), idiopathic normal pressure hydrocephalus 123 (symbol ▴; n=1), cerebral cyst 124 (symbol O; n=4), and arachnoid cyst 125 (symbol ▪; n=4). The letter n refers to number of individuals within each group. […] Half-time of gadobutrol in blood is about 1.8 hours. It should be noted that the amount and time course of appearance of gadobutrol in blood differs for the various groups of individuals, related to the fact that the ability to remove substances from the cranio-spinal compartment varies between individuals. […] The concentrations may be determined after 24 or 48 hours or after any time point within 72 hours after the indicator fluid is present in CSF.
In FIG. 1f-h, the inventors provide some examples of measurements of indicator fluid (the MRI contrast agent gadobutrol) concentration level in blood at different time points after indicator fluid being present in CSF in three separate individuals. It should be noted that the invention gives no limitation regarding the method by which the blood concentration is measured. […]

[2] = Percentage change in normalized T1 signal unit ratios in FreeSurfer-segmented brain regions after intrathecal gadobutrol (Table 5, FIG. 14e-h); format: in vivo, human; conditions: for Percentage change in signal unit ratios: mean ± SD
From the text: The alignment of longitudinal data is illustrated in FIG. 14c-d. When repeated MRIs are obtained proper alignment is necessary for use of segmentation tools. Otherwise, it is not possible to examine how signals within defined regions of interest change over time. […] The co-registered MRI 1409 show no good co-registration. In FIG. 14d is shown coronal T1 MRIs at Time 1 1410 and Time 2 1411, including co-registered MRIs 1412. In this latter case proper alignment is obtained. Methodology for alignment is established from prior art, as is methodology for segmentation of MRI acquisitions. The inventors have used the FreeSurfer software (version 6.0) (http://surfer.nmr.mgh.harvard.edu/) for segmentation and parcellation, and to measure how an indicator fluid present within CSF (the MRI contrast agent gadobutrol) changed the T1 SU. In this case, the MRI contrast agent was used as CSF tracer. The FreeSurfer software utilizes automated Talairach transformation 1402, and allows for segmentation of a wide range of brain regions, including the subcortical white matter and deep gray matter volumetric structures (including hippocampus, amygdala, caudate, putamen, ventricles).
Using prior art methodology for alignment and segmentation, changes in indication signals over time may be determined. This is further illustrated in Table 5. The results are from 8 individuals who underwent MRI for tentative idiopathic intracranial hypotension due to CSF leakage. A CSF leakage was identified in 3/8 individuals. Otherwise the individuals were healthy. Table 5 presents the percentage change in normalized T1 signals, i.e. indication signal ratios, over time, as compared to T1 weighted MRI without CSF tracer present. […] The MRI signal increase was significant at all main locations (Table 5). The determination of signal unit ratios was described with reference to FIG. 7.
Each image acquisition lasted 6 minutes and 29 seconds.
The inventors determined percentage change in signal units when indicator fluid was present in the CSF compartment, as compared to a point of time without any indicator fluid within the CSF compartment. Four different regions were examined, segmented using FreeSurfer, namely CSF (FIG. 14e), entorhinal cortex (FIG. 14f), hippocampus (FIG. 14g) and Limbic structures (FIG. 14h). The two cohorts of individuals included reference subjects who were close to healthy and a population with a subtype of dementia. For the CSF compartment (FIG. 14e) is shown percentage change in signal unit ratios 1413 versus time 1414, including trend plots for reference subjects 1415 and individuals with dementia 1416. […] Peak for reference subjects occurred after 6-9 hours while after 24 hours for the dementia population.

Question: What does the source list for `O=C([O-])CN1CCN(CC(=O)[O-])CCN([C@H](CO)[C@H](O)CO)CCN(CC(=O)[O-])CC1.[Gd+3]` (racemic) [gadobutrol]?
Answer: Time of maximum concentration in blood after gadobutrol present in CSF ([1]; group trend plot: arachnoid cyst (n=4)): 3 to 4 h; Time of maximum concentration in blood after gadobutrol present in CSF ([1]; group trend plot: cerebral cyst (n=4)): 7 to 8 h; Time of maximum concentration in blood after gadobutrol present in CSF ([1]; group trend plots: intracranial hypotension (n=4), idiopathic intracranial hypertension (n=1), iNPH (n=1)): 5 to 6 h; Percentage change in signal unit ratios ([2]; Basal ganglia, 1.5-2 hours): −3 ± 8%; Percentage change in signal unit ratios ([2]; Basal ganglia, 2-4 hours): −6 ± 14%; Percentage change in signal unit ratios ([2]; Basal ganglia, 4-6 hours): 1 ± 25%; Percentage change in signal unit ratios ([2]; Basal ganglia, 6-9 hours): −4 ± 14%; Percentage change in signal unit ratios ([2]; Basal ganglia, 24 hours): 4 ± 18%; Time of peak percentage change in signal unit ratios ([2]; CSF (FIG. 14e), reference subjects and dementia individuals): 6 to 9 h; Percentage change in signal unit ratios ([2]; CSF [24], 1.5-2 hours after intrathecal gadobutrol, 8 individuals): 16 ± 20%; Percentage change in signal unit ratios ([2]; CSF [24], 2-4 hours): 101 ± 116%; Percentage change in signal unit ratios ([2]; CSF [24], 4-6 hours): 354 ± 309%; Percentage change in signal unit ratios ([2]; CSF [24], 6-9 hours): 500 ± 421%; Percentage change in signal unit ratios ([2]; CSF [24], 24 hours): 157 ± 164%; Percentage change in signal unit ratios ([2]; Cerebellar cortex, 1.5-2 hours): 6 ± 6%; Percentage change in signal unit ratios ([2]; Cerebellar cortex, 2-4 hours): 12 ± 27%; Percentage change in signal unit ratios ([2]; Cerebellar cortex, 4-6 hours): 45 ± 58%; Percentage change in signal unit ratios ([2]; Cerebellar cortex, 6-9 hours): 67 ± 80%; Percentage change in signal unit ratios ([2]; Cerebellar cortex, 24 hours): 53 ± 47%; Percentage change in signal unit ratios ([2]; Cerebellar white matter, 1.5-2 hours): 1 ± 9%; Percentage change in signal unit ratios ([2]; Cerebellar white matter, 2-4 hours): −3 ± 14%; Percentage change in signal unit ratios ([2]; Cerebellar white matter, 4-6 hours): 3 ± 23%; Percentage change in signal unit ratios ([2]; Cerebellar white matter, 6-9 hours): 2 ± 19%; Percentage change in signal unit ratios ([2]; Cerebellar white matter, 24 hours): 15 ± 23%; Percentage change in signal unit ratios ([2]; Cerebral cortex (grey matter), 1.5-2 hours): −3 ± 7%; Percentage change in signal unit ratios ([2]; Cerebral cortex (grey matter), 2-4 hours): −1 ± 15%; Percentage change in signal unit ratios ([2]; Cerebral cortex (grey matter), 4-6 hours): 26 ± 44%; Percentage change in signal unit ratios ([2]; Cerebral cortex (grey matter), 6-9 hours): 44 ± 50%; Percentage change in signal unit ratios ([2]; Cerebral cortex (grey matter), 24 hours): 52 ± 54%; Percentage change in signal unit ratios ([2]; Cerebral white matter, 1.5-2 hours): −3 ± 9%; Percentage change in signal unit ratios ([2]; Cerebral white matter, 2-4 hours): −1 ± 18%; Percentage change in signal unit ratios ([2]; Cerebral white matter, 4-6 hours): 26 ± 40%; Percentage change in signal unit ratios ([2]; Cerebral white matter, 6-9 hours): 34 ± 46%; Percentage change in signal unit ratios ([2]; Cerebral white matter, 24 hours): 27 ± 33%; Percentage change in signal unit ratios ([2]; Hippocampus, amygdala, accumbens, entorhinal, 1.5-2 hours): −2 ± 7%; Percentage change in signal unit ratios ([2]; Hippocampus, amygdala, accumbens, entorhinal, 2-4 hours): −1 ± 15%; Percentage change in signal unit ratios ([2]; Hippocampus, amygdala, accumbens, entorhinal, 4-6 hours): 28 ± 38%; Percentage change in signal unit ratios ([2]; Hippocampus, amygdala, accumbens, entorhinal, 6-9 hours): 43 ± 43%; Percentage change in signal unit ratios ([2]; Hippocampus, amygdala, accumbens, entorhinal, 24 hours): 42 ± 39%; Percentage change in signal unit ratios ([2]; Thalamus, 1.5-2 hours): −2 ± 8%; Percentage change in signal unit ratios ([2]; Thalamus, 2-4 hours): −4 ± 15%; Percentage change in signal unit ratios ([2]; Thalamus, 4-6 hours): 5 ± 26%; Percentage change in signal unit ratios ([2]; Thalamus, 6-9 hours): 2 ± 18%; Percentage change in signal unit ratios ([2]; Thalamus, 24 hours): 11 ± 21%; Time of peak percentage change in signal unit ratios ([2]; entorhinal cortex, dementia population): 24 h; Time of peak percentage change in signal unit ratios ([2]; entorhinal cortex, reference subjects): 6 to 9 h; Time of peak percentage change in signal unit ratios ([2]; hippocampus, dementia cohort): 24 h; Time of peak percentage change in signal unit ratios ([2]; hippocampus, reference subjects): 6 to 9 h; Time of peak percentage change in signal unit ratios ([2]; limbic structures, dementia cohort): 24 h; Time of peak percentage change in signal unit ratios ([2]; limbic structures, reference subjects): 6 to 9 h
